Each structure is given as a SMILES string.

Results on 30 molecules are retold here after US9163027B2, “Substituted triazolo-pyrimidine compounds for modulating cell proliferation differentiation and survival” (STATegics, Inc., priority 2012, dated 2015).

The test system of the first assay is PC12 cells. Briefly: PC12 cell survival under serum deprivation (CellTiter-Glo). To be noted: 72 h serum-free; NS = RLU increased <25% at 5 uM. The class given is cell-based, rat. As for the experimental part:
Each culture condition was performed in quadruplicate in each experiment and the mean values were calculated. The results represent mean±SEM of relative light unit values when compared to the mean values obtained in the presence of the medium alone. A total of 13 experiments were performed and the statistical significance was analyzed using GraphPad Prism software using ANOVA, followed by paired t-test. The symbol * indicates P-values <0.01.
PC12 cells were cultured in DMEM supplemented with 10% fetal calf serum and 5% horse serum. […] Cell viability was analyzed by CellTiter-Glo® reagent (Promega).
PC12 cells were cultured in DMEM supplemented with 10% fetal calf serum and 5% horse serum. […] Cell survival of the serum-starved cells was analyzed by CellTiter-Glo® reagent luminescence reading.
FIG. 2 illustrates neuroprotective effects of Compounds 1-5 when tested in PC12 cell protection assays. PC12 cells were subjected to serum deprivation as described under FIG. 1.
PC12 cells were cultured in DMEM supplemented with 10% fetal calf serum and 5% horse serum. […] Cell survival of the serum-starved cells was analyzed by CellTiter-Glo® reagent luminescence reading (relative light units, “RLU”). […] “NS” indicates RLU increased <25% when compounds were tested at 5 uM.
In general terms: Cellular ATP, detected with luciferase, serves as a proxy for viable cell number.
For `Cc1cc(C)n2nc(SCCOc3ccc(F)c(Cl)c3)nc2n1` [Example 6], the “PC12 cell proliferation (CellTiter-Glo ®) Concentration at which RLU increased >25% compared to medium control” value is <5 µM. As for `Cc1cc(C)n2nc(SCCOc3ccncc3)nc2n1` [Example 31, 4-[2-({5,7-dimethyl-[1,2,4]triazolo[1,5-a]pyrimidin-2-yl}sulfanyl)ethoxy]pyridine], the “PC12 cell proliferation (CellTiter-Glo ®) Concentration at which RLU increased >25% compared to medium control” value is reported as “NS (RLU increased <25% when compounds were tested at 5 uM)”.

Consider `Cc1cc(C)n2nc(SCCOc3ccc(CCN(C)C)cc3)nc2n1` [Example 32, (2-{4-[2-({5,7-dimethyl-[1,2,4]triazolo[1,5-a]pyrimidin-2-yl}sulfanyl)ethoxy]phenyl}ethyl)-dimethylamine], for which the “PC12 cell proliferation (CellTiter-Glo ®) Concentration at which RLU increased >25% compared to medium control” value is on record as “NS (RLU increased <25% when compounds were tested at 5 uM)”. Turning to `Cc1cc(C)n2nc(SCCOC3CCCCC3)nc2n1` [Example 33, 2-{[2-(cyclohexyloxy)ethyl]sulfanyl}-5,7-dimethyl-[1,2,4]triazolo[1,5-a]pyrimidine], the “PC12 cell proliferation (CellTiter-Glo ®) Concentration at which RLU increased >25% compared to medium control” value is listed as “NS (RLU increased <25% when compounds were tested at 5 uM)”.

Still in this assay, the particulars now being: Rattus norvegicus, PC-12; 72 h serum-free; NS = RLU increased <25% at 5 uM; read-out: PC12 cell proliferation (CellTiter-Glo ®) Concentration at which RLU increased >25% compared to medium control.
Take `Cc1cc(C)n2nc(SCCOc3ccccc3)nc2n1` [Example 2, 5,7-dimethyl-2-[(2-phenoxyethyl)sulfanyl]-[1,2,4]-triazolo[1,5-a]pyrimidine]: the minimal effective concentration is < 5 µM. Same read-out and setting: the figure for `Cc1cc(C)n2nc(SCCOc3ccc(F)cc3)nc2n1` [Example 3, 2-{[2-(4-fluorophenoxy)ethyl]sulfanyl}-5,7-dimethyl-[1,2,4]triazolo[1,5-a]pyrimidine] is < 5 µM. As to `Cc1cc(C)n2nc(SCCOc3ccc(Cl)c(F)c3)nc2n1` [Example 4, 2-{[2-(4-chloro-3-fluorophenoxy)ethyl]sulfanyl}-5,7-dimethyl-[1,2,4]triazolo[1,5-a]pyrimidine], the minimal effective concentration is < 5 µM.

In the case of `Cc1cc(C)n2nc(SCCOc3ccc(Cl)c(Cl)c3)nc2n1` [Example 5, 2-{[2-(3,4-dichlorophenoxy)ethyl]sulfanyl}-5,7-dimethyl-[1,2,4]-triazolo[1,5-a]pyrimidine], the minimal effective concentration is < 5 µM. The same measure, in the same setting: the figure for `Cc1cc(C)n2nc(SCCOc3ccc(F)c(F)c3)nc2n1` [Example 7, 2-{[2-(3,4-difluorophenoxy)ethyl]sulfanyl}-5,7-dimethyl-[1,2,4]triazolo[1,5-a]pyrimidine] is < 5 µM; for `CCc1ccc(OCCSc2nc3nc(C)cc(C)n3n2)cc1` [Example 8, 2-{[2-(4-ethylphenoxy)ethyl]sulfanyl}-5,7-dimethyl-[1,2,4]triazolo[1,5-a]pyrimidine] it is < 5 µM; for `Cc1cc(C)n2nc(SCCN(CCO)c3ccccc3)nc2n1` [Example 9, 2-{[2-({5,7-Dimethyl-[1,2,4]triazolo[1,5-a]pyrimidin-2-yl}sulfanyl)ethyl](phenyl)amino}ethan-1-ol] it is < 5 µM.

`Cc1cc(C)n2nc(OCCCC3CCCC3)nc2n1` [Example 12, 2-(3-cyclopentylpropoxy)-5,7-dimethyl-[1,2,4]-triazolo[1,5-a]pyrimidine]: the minimal effective concentration is < 5 µM.

In the case of `CCc1cc(CC)n2nc(OCCN(CCO)c3ccc(F)cc3)nc2n1` [Example 14, 2-{[2-({5,7-diethyl-[1,2,4]triazolo[1,5-a]pyrimidin-2-yl}oxy)ethyl](4-fluorophenyl)amino}ethan-1-ol], the minimal effective concentration is < 5 µM. Consider `CCc1cc(CC)n2nc(OCCOc3ccc(F)cc3)nc2n1` [Example 15, 5,7-diethyl-2-[2-(4-fluorophenoxy)ethoxy]-[1,2,4]triazolo[1,5-a]pyrimidine], for which the minimal effective concentration is < 5 µM. On to `CCc1cc(CC)n2nc(OCCOc3ccc(Cl)cc3)nc2n1` [Example 16, 5,7-diethyl-2-[-2-(4-chlorophenoxy)ethoxy]-[1,2,4]triazolo[1,5-a]pyrimidine], for which the minimal effective concentration is < 5 µM. Take `CCc1cc(CC)n2nc(OCCN(CCO)c3ccccc3)nc2n1` [Example 17, 2-{[2-({5,7-Diethyl-[1,2,4]triazolo[1,5-a]pyrimidin-2-yl}oxy)ethyl](phenyl)amino}ethan-1-ol]: the minimal effective concentration is < 5 µM. Consider `CCc1cc(CC)n2nc(NCCOc3ccccc3)nc2n1` [Example 18, 5,7-diethyl-N-(2-phenoxyethyl)-[1,2,4]triazolo[1,5-a]pyrimidin-2-amine], for which the minimal effective concentration is < 5 µM.

Turning to `Cc1cc(C)n2nc(NCCOc3ccc(Cl)cc3)nc2n1` [Example 19, N-[2-(4-chlorophenoxy)ethyl]-5,7-dimethyl-[1,2,4]triazolo[1,5-a]pyrimidin-2-amine], the minimal effective concentration was < 5 µM. On the same count and under the same terms, the figure for `CCc1cc(CC)n2nc(CCCN(CCO)c3ccc(F)cc3)nc2n1` [Example 20, 2-[(3-{5,7-diethyl-[1,2,4]triazolo[1,5-a]pyrimidin-2-yl}propyl)(4-fluorophenyl)amino]ethan-1-ol] is < 5 µM.

Take `CCc1cc(CC)n2nc(CCCN(CCOC(C)=O)c3ccc(F)cc3)nc2n1` [Example 21, 2-[(3-{5,7-diethyl-[1,2,4]triazolo[1,5-a]pyrimidin-2-yl}propyl)(4-fluorophenyl)amino]ethyl acetate]: the minimal effective concentration was < 5 µM. Still for that read-out and setting: under `Cc1cc(C(F)(F)F)n2nc(CCCOc3ccc(Cl)cc3)nc2n1` [Example 22, 2-[3-(4-chlorophenoxy)propyl]-5-methyl-7-(trifluoromethyl)-[1,2,4]triazolo[1,5-a]pyrimidine] stands < 5 µM; under `Cc1cc(C(F)(F)F)n2nc(SCCOc3ccc(Cl)cc3)nc2n1` [Example 23, 2-{[2-(4-chlorophenoxy)ethyl]sulfanyl}-5-methyl-7-(trifluoromethyl)-[1,2,4]-triazolo[1,5-a]pyrimidine], < 5 µM. Same read-out and setting: under `FC(F)(F)c1cc(C(F)(F)F)n2nc(SCCOc3ccc(Cl)cc3)nc2n1` [Example 24, 2-{[2-(4-chlorophenoxy)ethyl]sulfanyl}-5,7-bis(trifluoromethyl)-[1,2,4]-triazolo[1,5-a]pyrimidine] stands < 5 µM; under `Clc1ccc(OCCSc2nc3ncccn3n2)cc1` [Example 25, 2-{[2-(4-chlorophenoxy)ethyl]sulfanyl}-[1,2,4]-triazolo[1,5-a]pyrimidine], < 5 µM; under `Cc1ccn2nc(SCCOc3ccc(Cl)cc3)nc2n1` [Example 26, 2-{[2-(4-chlorophenoxy)ethyl]sulfanyl}-5-methyl-[1,2,4]triazolo[1,5-a]pyrimidine], < 5 µM.

Take `Cc1ccnc2nc(SCCOc3ccc(Cl)cc3)nn12` [Example 27, 2-{[2-(4-chlorophenoxy)ethyl]sulfanyl}-7-methyl-[1,2,4]-triazolo[1,5-a]pyrimidine]: the minimal effective concentration was < 5 µM.

On to `CC(C)c1cc(C(C)C)n2nc(CCCOc3ccc(F)cc3)nc2n1` [Example 29, 2-[3-(4-fluorophenoxy)propyl]-5,7-bis(propan-2-yl)-[1,2,4]triazolo[1,5-a]pyrimidine], for which the minimal effective concentration was < 5 µM. Take `Fc1ccc(OCCCc2nc3nc(C(F)F)cc(C(F)F)n3n2)cc1` [Example 30, 5,7-bis(difluoromethyl)-2-[3-(4-fluorophenoxy)propyl]-[1,2,4]triazolo[1,5-a]pyrimidine]: the minimal effective concentration was < 5 µM.

In the case of `Cc1cc(C)n2nc(SCCc3c[nH]c4ccccc34)nc2n1` [Example 34, 3-[2-({5,7-dimethyl-[1,2,4]triazolo[1,5-a]pyrimidin-2-yl}sulfanyl)ethyl]-1H-indole], the minimal effective concentration is < 5 µM.

Turning to `Cc1cc(C)n2nc(OCCSc3ccc(Cl)cc3)nc2n1` [Example 35, 2-{2-[(4-chlorophenyl)sulfanyl]ethoxy}-5,7-dimethyl-[1,2,4]triazolo[1,5-a]pyrimidine], the minimal effective concentration is < 5 µM.
